Values quoted from earlier work in patent publication US7375136B2, “pH-dependent NMDA receptor antagonists” (Emory University, priority 2001, dated 2008).

Molecular target: NR2B subunit-containing recombinant NMDA receptors (Homo sapiens, UniProt Q05586+Q13224)
Details: pH 6.8 compared to pH 7.5; cited from earlier work

NR2B subunit-containing recombinant NMDA receptors, sequence (Q13224 27-1484, other chains not shown): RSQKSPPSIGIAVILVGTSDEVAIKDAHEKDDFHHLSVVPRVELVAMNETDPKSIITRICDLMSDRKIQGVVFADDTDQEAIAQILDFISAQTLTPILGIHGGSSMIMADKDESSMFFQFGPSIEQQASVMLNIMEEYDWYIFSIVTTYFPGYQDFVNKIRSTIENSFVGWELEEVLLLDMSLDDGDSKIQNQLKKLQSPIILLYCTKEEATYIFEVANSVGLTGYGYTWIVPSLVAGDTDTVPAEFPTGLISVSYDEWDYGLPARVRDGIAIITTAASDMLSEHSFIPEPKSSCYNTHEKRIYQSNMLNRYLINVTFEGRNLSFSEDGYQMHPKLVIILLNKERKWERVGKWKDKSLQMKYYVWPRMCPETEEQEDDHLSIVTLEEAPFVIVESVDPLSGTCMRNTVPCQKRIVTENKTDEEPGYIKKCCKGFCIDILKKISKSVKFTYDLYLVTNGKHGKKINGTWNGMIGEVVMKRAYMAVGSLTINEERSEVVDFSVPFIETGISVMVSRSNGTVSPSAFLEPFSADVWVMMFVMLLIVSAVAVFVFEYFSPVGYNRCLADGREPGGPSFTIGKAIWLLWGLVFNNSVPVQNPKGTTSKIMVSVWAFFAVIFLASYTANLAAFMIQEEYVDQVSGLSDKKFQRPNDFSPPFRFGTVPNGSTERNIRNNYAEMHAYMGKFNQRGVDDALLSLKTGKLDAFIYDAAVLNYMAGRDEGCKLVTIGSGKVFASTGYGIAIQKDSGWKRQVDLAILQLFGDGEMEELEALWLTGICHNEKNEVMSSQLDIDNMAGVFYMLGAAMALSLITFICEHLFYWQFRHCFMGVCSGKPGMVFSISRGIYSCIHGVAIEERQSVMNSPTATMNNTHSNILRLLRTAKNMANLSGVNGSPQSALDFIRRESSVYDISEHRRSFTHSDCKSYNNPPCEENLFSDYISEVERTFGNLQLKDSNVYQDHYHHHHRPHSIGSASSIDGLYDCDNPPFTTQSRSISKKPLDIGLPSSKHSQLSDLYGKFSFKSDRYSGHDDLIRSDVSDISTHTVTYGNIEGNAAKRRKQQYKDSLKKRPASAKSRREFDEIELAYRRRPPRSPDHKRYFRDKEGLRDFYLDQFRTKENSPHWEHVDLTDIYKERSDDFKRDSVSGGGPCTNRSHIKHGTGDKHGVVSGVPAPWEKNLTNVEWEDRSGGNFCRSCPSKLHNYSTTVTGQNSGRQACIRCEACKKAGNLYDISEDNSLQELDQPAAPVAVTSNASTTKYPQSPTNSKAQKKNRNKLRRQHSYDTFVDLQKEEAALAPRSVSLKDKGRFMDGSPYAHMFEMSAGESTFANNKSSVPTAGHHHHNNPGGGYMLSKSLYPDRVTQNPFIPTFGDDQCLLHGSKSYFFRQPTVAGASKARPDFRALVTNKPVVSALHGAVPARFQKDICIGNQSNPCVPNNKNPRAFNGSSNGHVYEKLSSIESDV

CC(C(O)c1ccc(O)cc1)N1CCC(Cc2ccccc2)CC1 (stereo not shown) [Ifenprodil]
potency for inhibition of NR2B subunit-containing recombinant NMDA receptors as a function of pH: enhanced at pH 6.8 compared to pH 7.5
